Test results reported in US6358517B1, “Cosmetic compositions containing resveratrol and retinoids” (Unilever Home & Personal Care USA, division of Conopco, priority 1999, dated 2002).

Key:
[1] = system: Cellular Retinoic Acid Binding Protein 2 (CRABP-2); test: CRABP-2 expression in human adult skin fibroblasts, Western blot; format: cell-based; conditions: for CRABP-2 expression in skin fibroblasts in combination with resveratrol (in words): retinoid combined with resveratrol, summary of Tables 2A and 2B
Description: Human adult fibroblasts obtained from sun-protected inner arm of the […] were used. Cells were grown in 1:1 DMEM/Hams F12 media containing 10% FBS, maintained at 37° C. in a 5% CO2 atmosphere under normal atmospheric oxygen tension. Third passage adult fibroblasts were grown in DMEM media with 10% FBS in 12-well plates at a seeding density of 40,000 cells/ml/well. The cells at 80% confluence were rinsed in serum free and phenol red free (PRF) DMEM media twice. Cells were pretreated with resveratrol for 4 hours was conducted and then dosed with retinoids and incubated for a further 48 hours. After the incubation, the wells were washed twice with 1×PBS and the cell monolayer was harvested in 100 μl cell lysis buffer (contained 1×PBS, 1% TritonX, 0.5% sodium deoxycholate, 0.1% SDS containing protease inhibitor (10 mg/ml PMSF in isopropanol, 10 μl/ml). The suspension was spun at 14000 rpm for 10 minutes, the supernatant collected and an aliquot of this supernatant was used for protein quantification. Protein concentration was determined using Pierce protein kit. The remainder of 1 00ul supernatant (cell lysate) was denatured in a mixture of 40 μl sample buffer (NOVEX) and 0.5% Beta mercaptoethanol (BME) and by boiling the sample for 5 minutes.
(§1) Within the cells, retinol and retinoic acid are bound to specific cellular binding proteins. Two of the major proteins are CRABP-1 and CRABP-2 (Roos et al., Pharmacological reviews: 50, 315-333, 1998). These proteins regulate the intracellular concentration of retinoids by acting as either storage or shuttle proteins in retinoid metabolism. The levels of CRABP protein are regulated by the amount of retinoic acid within the cells. Higher cellular levels of retinoids increase the expression of CRABP-2. Therefore, the amount of this protein in the cells, is a measure of the retinoid activity of the cells. Skin cells contain high levels of CRABP-2 both in the epidermis and the dermis. CRABP-2 response to retinoid administration in fibroblasts in vitro is used as a reproducible measure of retinoid bioactivity that predict human skin responses (Elder et al., J. Invest. Dermatol., 106: 517-521, 1996). Increase in CRABP-2 is also associated with increased epidermal differentiation, and dermal retinoid action. Therefore, in these studies we used CRABP-2 expression of fibroblasts and pig skin epidermis as a measure of retinoid activity leading to increased epidermal differentiation (skin conditioning and dry skin benefit) and dermal collagen and extracellular matrix synthesis (antiaging, anti wrinkling benefits).
To measure the levels of CRABP-2 in the fibroblast and pig skin extracts prepared as described above, the cell supernatant was re-suspended in 4×sample buffer and 10% BME, boiled for 5 minutes and used for western blotting. Equal amounts of protein were loaded onto 16% Tris-glycine gels for CRABP-2 protein analysis by SDS-PAGE and Western Immuno-blotting. The gels were transferred to PVDF membranes and Western Blotting was carried out using monoclonal antibodies to CRABP-2 according to standard procedures. The CRABP-2 protein band was visualized in the Western Blots using the chemiluminescence system obtained from Boehringer Mannheim (Indianopolis, Ind.). The bands in the film were quantified by densitometric scanning, the data from triplicate samples were calculated as % of control and expressed in the following tables as % increase over control (with control as 100%) +/− standard deviation. […]

[2] = system: Cellular Retinoic Acid Binding Protein 2 (CRABP-2); test: CRABP-2 expression in pig skin organ culture (epidermis), Western blot; format: cell-based; conditions: for effects on CRABP-2 expression (in words): alone, pig skin epidermis, summary of Table 1
Description: 7 mm pig skin biopsies were taken, plated in serum free DMEM, and incubated for 2 days. The media was then switched to phenol-red free media. The biopsies were topically treated with resveratrol for 24 hrs in 5 μl ethanol per biopsy. After 24 hours, retinoids were topically applied to the biopsies. The treated biopsies were incubated for 4 days thereafter. After treatment phase, the biopsies were rinsed in 1×phosphate-buffer twice and then frozen at −20° C. for future use. The epidermis and dermis was separated by freezing and scraping off the epidermis. The epidermis was collected and homogenized in lysis buffer (contains 1×PBS, 1% TritonX, 0.5% sodium deoxycholate, 0.1% SDS containing protease inhibitor (10 mg/ml PMSF in isopropanol at 10 μl/ml, Aprotinin 30 μl/ml and 100 mM sodium orthovanadate at 10 μl/ml). This homogenate was then spun at 14000 rpm and the supernatant was collected for determining protein (aliquot of the supernatant for protein determination).
as §1, with “Two of the major proteins are CRABP-1 and CRABP-2 (Roos et al., Pharmacological reviews: 50, 315-333, 1998).” left out, “CRABP-2 response to retinoid administration in fibroblasts in vitro is used as a reproducible measure of retinoid bioactivity that predict human skin responses (Elder et al., J. Invest. Dermatol., 106: 517-521, 1996).” left out
To measure the levels of CRABP-2 in the fibroblast and pig skin extracts prepared as described above, the cell supernatant was re-suspended in 4×sample buffer and 10% BME, boiled for 5 minutes and used for western blotting. […] The gels were transferred to PVDF membranes and Western Blotting was carried out using monoclonal antibodies to CRABP-2 according to standard procedures. The CRABP-2 protein band was visualized in the Western Blots using the chemiluminescence system obtained from Boehringer Mannheim (Indianopolis, Ind.). The bands in the film were quantified by densitometric scanning, the data from triplicate samples were calculated as % of control and expressed in the following tables as % increase over control (with control as 100%) +/− standard deviation.

[3] = Table 2B, 10 μM Retinoic acid alone
[4] = Table 2B, 10 μM Resveratrol alone
[5] = Homo sapiens, Skin fibroblast, Table 2A, 100 nM alone, read-out: % of Control

SMILES	effects on CRABP-2 expression (in words) [2]	activity at 0.1 µM [1, 5]	CRAB-2 production ([1]; Table 2A, 100 nM alone)	% as Control ([1]; Table 2B, 1 μM alone)	CRABP-2 production ([1]; Table 2B, 1 μM alone)	% as Control ([1]; Table 3, 100 nM alone)	CRABP-2 production ([1]; Table 3, 100 nM alone)	CRABP-2 expression in skin fibroblasts in combination with resveratrol (in words) [1]	also measured
CC1=C(/C=C/C(C)=C/C=C/C(C)=C/C(=O)O)C(C)(C)CCC1 [Retinoic acid]									activity at 0.001 µM ([1]; Homo sapiens, Skin fibroblast, Table 2A, 1 nM alone, read-out: % of Control): 132%; activity at 0.01 µM ([1]; Homo sapiens, Skin fibroblast, Table 2A, 10 nM alone, read-out: % of Control): 165%; CRAB-2 production ([1]; Table 2A, 1 nM alone): 2.056 +/− 0.50; CRAB-2 production ([1]; Table 2A, 10 nM alone): 2.566 +/− 0.19; % as Control [1, 3]: 574 +/− 60%; CRABP-2 production [1, 3]: 3.27 +/− 0.34; % as Control ([1]; Table 3, 10 nM alone): 266 +/− 80%; CRABP-2 production ([1]; Table 3, 10 nM alone): 1.201 +/− 0.36
Oc1ccc(/C=C/c2cc(O)cc(O)c2)cc1 [Resveratrol, 5-parahydroxystyryl resorcinol]	only minimal, insignificant effects								activity at 50 µM ([2]; Sus scrofa, Experiment 1, 50 μM, topical on pig skin biopsies, read-out: CRABP-2, Alone (% of control, control as 100%)): 143%; activity at 20 µM ([2]; Sus scrofa, Experiment 2, 20 μM, topical on pig skin biopsies, read-out: CRABP-2, Alone (% of control, control as 100%)): 242%; activity at 10 µM ([1]; Homo sapiens, Skin fibroblast, Table 2A, 10 μM alone, read-out: % of Control): 27%; CRAB-2 production ([1]; Table 2A, 10 μM alone): 0.416 +/− 0.12; % as Control [1, 4]: 32 +/− 1%; CRABP-2 production [1, 4]: 0.185
CC(=O)OC/C=C(C)/C=C/C=C(C)/C=C/C1=C(C)CCCC1(C)C [Retinyl Acetate]		56%	0.876 +/− 0.20	178 +/− 102%	1.01 +/− 0.58	124 +/− 42%	0.561 +/− 0.19		CRABP-2 expression in skin fibroblasts (in words) ([1]; Low levels (100 nm), either alone or in combination with resveratrol): ineffective; CRABP-2 expression in skin fibroblasts (in words) ([1]; higher levels (Table 2B), in the presence of reveratrol): stimulated CRABP-2 expression
CCCCC/C=C\C/C=C\CCCCCCCC(=O)OC/C=C(C)/C=C/C=C(C)/C=C/C1=C(C)CCCC1(C)C [Retinyl Linoleate]			0.88 +/− 0.23	112 +/− 75%		253 +/− 127%	1.141 +/− 0.57		% of Control ([1]; Table 2A, 100 nM alone): 57 +/− 14%
CCCCCCCCCCCCCCCC(=O)OC/C=C(C)/C=C/C=C(C)/C=C/C1=C(C)CCCC1(C)C [Retinyl Palmitate]		25%	0.376 +/− 0.11	503 +/− 260%	2.87 +/− 1.48	254 +/− 101%	1.143 +/− 0.45	not effective	
CC1=C(/C=C/C(C)=C/C=C/C(C)=C/CO)C(C)(C)CCC1 [Retinol]	significantly higher stimulation			270 +/− 73%	1.54 +/− 0.41	308 +/− 108%	1.387 +/− 0.49	effective	activity at 5 µM ([2]; Sus scrofa, Experiment 2, 5 μM, topical on pig skin biopsies, read-out: CRABP-2, Alone (% of control, control as 100%)): 345%
